Data set [1] in a line: Molar enthalpy of transition or fusion. Particulars: DSC.
The conditions of data set [2]: DTA.

Numbers after ± are expanded uncertainties.

Turning to `CCCCn1cc[n+](C)c1.F[P-](F)(F)(F)(F)F` [1-butyl-3-methylimidazolium hexafluorophosphate], the “Molar enthalpy of transition or fusion” value in data set [1] (Crystal 1) came out at 2.2 ± 0.0789 kcal/mol. Further, the Normal melting temperature in data set [2] (Crystal 1) came to 3.28 ± 1 °C. Moreover, in data set [2] (Glass), the Glass transition temperature is -76.59 ± 0.5 °C.

As to `CCn1cc[n+](C)c1.F[P-](F)(F)(F)(F)F` [1-ethyl-3-methylimidazolium hexafluorophosphate], the “Molar enthalpy of transition or fusion” value in data set [1] (Crystal) is 4.27 ± 0.134 kcal/mol. The Normal melting temperature in data set [2] (Crystal) is 59.7 ± 1 °C.

For the origin of these results see the NIST ThermoML archive (doi:10.1021/je020145g).
